Source: ChEMBL document CHEMBL6178017, “Intercepting the Downstream of the Estrogen Receptor Signaling Pathway: Discovery of a Potent and Efficient SRC-3 PROTAC Degrader for Overcoming Endocrine Resistance Breast Cancer” (J Med Chem, 2025)
Calls of active or inactive are those of the source. The rule behind the calls is not given here.

Columns and labels:
[1] = biological target: T1, Protein cereblon/Nuclear receptor coactivator 3 (Homo sapiens, UniProt Q9Y6Q9+Q96SW2); assay: PROTAC activity at CRBN/SRC-3 in human MCF7 cells assessed as induction of ER-alpha degradation at 1 uM incubated for 24 hrs by immunoblot analysis relative to control; assay type: cell-based
T1 sequence (Q96SW2 whole entry partner): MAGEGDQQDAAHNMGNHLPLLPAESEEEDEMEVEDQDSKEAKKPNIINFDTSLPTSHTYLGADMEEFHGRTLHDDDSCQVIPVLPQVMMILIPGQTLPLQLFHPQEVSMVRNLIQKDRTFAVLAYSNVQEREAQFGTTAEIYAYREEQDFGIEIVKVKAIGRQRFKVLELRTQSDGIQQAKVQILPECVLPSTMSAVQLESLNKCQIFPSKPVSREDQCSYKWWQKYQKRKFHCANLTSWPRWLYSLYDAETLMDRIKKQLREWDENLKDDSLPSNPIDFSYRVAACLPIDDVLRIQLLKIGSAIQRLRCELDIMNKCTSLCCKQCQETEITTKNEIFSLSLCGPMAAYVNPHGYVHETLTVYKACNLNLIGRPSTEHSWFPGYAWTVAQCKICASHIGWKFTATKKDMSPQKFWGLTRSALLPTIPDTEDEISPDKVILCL
T1 sequence (Q9Y6Q9 2-1424 limits assumed): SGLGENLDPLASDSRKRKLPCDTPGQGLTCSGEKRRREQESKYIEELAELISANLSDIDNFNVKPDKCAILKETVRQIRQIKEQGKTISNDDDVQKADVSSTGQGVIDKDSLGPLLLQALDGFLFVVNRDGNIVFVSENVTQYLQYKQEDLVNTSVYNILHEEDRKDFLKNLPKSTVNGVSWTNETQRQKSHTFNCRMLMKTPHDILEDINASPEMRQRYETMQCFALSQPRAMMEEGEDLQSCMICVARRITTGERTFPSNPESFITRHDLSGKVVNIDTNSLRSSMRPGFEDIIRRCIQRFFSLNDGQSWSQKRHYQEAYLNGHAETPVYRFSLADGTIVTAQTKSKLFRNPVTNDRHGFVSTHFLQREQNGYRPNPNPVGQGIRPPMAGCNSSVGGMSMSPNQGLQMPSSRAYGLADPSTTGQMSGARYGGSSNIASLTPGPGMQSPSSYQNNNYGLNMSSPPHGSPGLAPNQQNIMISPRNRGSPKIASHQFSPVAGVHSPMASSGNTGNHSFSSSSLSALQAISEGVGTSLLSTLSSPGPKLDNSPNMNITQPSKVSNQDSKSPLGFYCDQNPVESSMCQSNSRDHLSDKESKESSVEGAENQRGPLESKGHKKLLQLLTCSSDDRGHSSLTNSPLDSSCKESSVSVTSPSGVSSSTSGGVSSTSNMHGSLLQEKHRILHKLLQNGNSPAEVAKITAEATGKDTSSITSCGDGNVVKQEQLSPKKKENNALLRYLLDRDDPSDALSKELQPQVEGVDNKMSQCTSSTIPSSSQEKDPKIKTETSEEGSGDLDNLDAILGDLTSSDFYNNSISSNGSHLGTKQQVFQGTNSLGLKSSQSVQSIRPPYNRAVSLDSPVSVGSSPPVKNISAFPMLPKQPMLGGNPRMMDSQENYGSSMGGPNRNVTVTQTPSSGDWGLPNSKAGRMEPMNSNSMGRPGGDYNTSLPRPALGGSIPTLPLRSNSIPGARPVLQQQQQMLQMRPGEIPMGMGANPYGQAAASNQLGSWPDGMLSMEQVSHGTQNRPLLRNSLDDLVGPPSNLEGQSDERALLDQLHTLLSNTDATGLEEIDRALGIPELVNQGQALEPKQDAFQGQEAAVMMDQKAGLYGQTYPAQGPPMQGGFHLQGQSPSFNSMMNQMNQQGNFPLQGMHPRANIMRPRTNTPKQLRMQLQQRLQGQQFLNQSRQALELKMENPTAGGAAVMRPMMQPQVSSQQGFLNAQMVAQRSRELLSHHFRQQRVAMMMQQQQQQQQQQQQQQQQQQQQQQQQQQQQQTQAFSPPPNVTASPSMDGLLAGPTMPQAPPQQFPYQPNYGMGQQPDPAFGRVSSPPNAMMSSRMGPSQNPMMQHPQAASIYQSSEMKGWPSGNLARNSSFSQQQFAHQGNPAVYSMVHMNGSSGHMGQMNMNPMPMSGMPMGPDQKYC

[2] = biological target: Protein cereblon/Nuclear receptor coactivator 1 (Homo sapiens) (UniProt Q15788+Q96SW2); assay: PROTAC activity at CRBN/SRC-1 in human MCF7 cells assessed as induction of SRC-1 degradation at 0.01 to 10 uM measured after 36 hrs by immunoblot analysis; assay type: cell-based; settings: dose 0.01-10 µM
[3] = Toxicity against Balb/c mouse xenografted with tamoxifen-resistant human LCC2 cells assessed as effect on heart pathological changes at 3 to 5 uM/Kg, ip administered once every 2 days for 23 days and measured on day 25 by Hematoxylin-Eosin based […] staining analysis; assay type: organism-based; settings: in vivo, 600 h, dose 3-5 µM/Kg, time 25 day
[4] = Induction of apoptosis in tamoxifen-resistant human LCC2 cells assessed as viable cells at 5 uM incubated for 48 hrs by AnnexinV-FITC/PI staining based flow cytometry (reference value: 88.09%); assay type: functional; settings: Tamoxifen-resistant LCC2 cell, read-out: Activity
[5] = biological target: T1, Protein cereblon/Nuclear receptor coactivator 3; assay: PROTAC activity at CRBN/SRC-3 in tamoxifen-resistant human LCC2 cells assessed as induction of SRC-3 degradation at 1 uM incubated for 9 hrs by immunoblot analysis; assay type: cell-based; settings: Tamoxifen-resistant LCC2 cell
[6] = biological target: T1, Protein cereblon/Nuclear receptor coactivator 3; assay: PROTAC activity at CRBN/SRC-3 in tamoxifen-resistant human LCC2 cells assessed as induction of SRC-3 degradation at 1 uM preincubated with SI-2 for 2 hrs followed by incubation with compound and measured after 36 hrs by immunoblot analysis; assay type: cell-based; settings: Tamoxifen-resistant LCC2 cell
[7] = biological target: T1, Protein cereblon/Nuclear receptor coactivator 3; assay: PROTAC activity at CRBN/SRC-3 in human MCF-7 cells harboring Y537S mutant assessed as induction of SRC-3 degradation by measuring downregulation of SRC-3 protein level at 0.1 uM measured after 36 hrs by immunoblot analysis; assay type: cell-based; settings: MCF7
[8] = biological target: T1, Protein cereblon/Nuclear receptor coactivator 3; assay: PROTAC activity at CRBN/SRC-3 in human MCF7 cells assessed as induction of SRC-3 degradation at 1 uM preincubated with SI-2 for 2 hrs followed by incubation with compound and measured after 36 hrs by immunoblot analysis; assay type: cell-based
[9] = biological target: T1, Protein cereblon/Nuclear receptor coactivator 3; assay: PROTAC activity at CRBN/SRC-3 in tamoxifen-resistant human LCC2 cells assessed as induction of SRC-3 degradation at 1 uM preincubated with proteasome inhibitor, MG-132 for 2 hrs followed by incubation with compound and measured after 36 hrs by immunoblot analysis; assay type: cell-based; settings: Tamoxifen-resistant LCC2 cell
[10] = tested on: Tamoxifen-resistant LCC2 cell; assay: Upregulation of SRC3 mRNA expression in tamoxifen-resistant human LCC2 cells at 0.01 to 10 uM incubated for 36 hrs by qRT-PCR analysis; assay type: functional, cell-based; settings: dose 0.01-10 µM
[11] = biological target: Voltage-gated inwardly rectifying potassium channel KCNH2 (Homo sapiens, UniProt Q12809)
Chain of Voltage-gated inwardly rectifying potassium channel KCNH2 (Q12809 whole entry): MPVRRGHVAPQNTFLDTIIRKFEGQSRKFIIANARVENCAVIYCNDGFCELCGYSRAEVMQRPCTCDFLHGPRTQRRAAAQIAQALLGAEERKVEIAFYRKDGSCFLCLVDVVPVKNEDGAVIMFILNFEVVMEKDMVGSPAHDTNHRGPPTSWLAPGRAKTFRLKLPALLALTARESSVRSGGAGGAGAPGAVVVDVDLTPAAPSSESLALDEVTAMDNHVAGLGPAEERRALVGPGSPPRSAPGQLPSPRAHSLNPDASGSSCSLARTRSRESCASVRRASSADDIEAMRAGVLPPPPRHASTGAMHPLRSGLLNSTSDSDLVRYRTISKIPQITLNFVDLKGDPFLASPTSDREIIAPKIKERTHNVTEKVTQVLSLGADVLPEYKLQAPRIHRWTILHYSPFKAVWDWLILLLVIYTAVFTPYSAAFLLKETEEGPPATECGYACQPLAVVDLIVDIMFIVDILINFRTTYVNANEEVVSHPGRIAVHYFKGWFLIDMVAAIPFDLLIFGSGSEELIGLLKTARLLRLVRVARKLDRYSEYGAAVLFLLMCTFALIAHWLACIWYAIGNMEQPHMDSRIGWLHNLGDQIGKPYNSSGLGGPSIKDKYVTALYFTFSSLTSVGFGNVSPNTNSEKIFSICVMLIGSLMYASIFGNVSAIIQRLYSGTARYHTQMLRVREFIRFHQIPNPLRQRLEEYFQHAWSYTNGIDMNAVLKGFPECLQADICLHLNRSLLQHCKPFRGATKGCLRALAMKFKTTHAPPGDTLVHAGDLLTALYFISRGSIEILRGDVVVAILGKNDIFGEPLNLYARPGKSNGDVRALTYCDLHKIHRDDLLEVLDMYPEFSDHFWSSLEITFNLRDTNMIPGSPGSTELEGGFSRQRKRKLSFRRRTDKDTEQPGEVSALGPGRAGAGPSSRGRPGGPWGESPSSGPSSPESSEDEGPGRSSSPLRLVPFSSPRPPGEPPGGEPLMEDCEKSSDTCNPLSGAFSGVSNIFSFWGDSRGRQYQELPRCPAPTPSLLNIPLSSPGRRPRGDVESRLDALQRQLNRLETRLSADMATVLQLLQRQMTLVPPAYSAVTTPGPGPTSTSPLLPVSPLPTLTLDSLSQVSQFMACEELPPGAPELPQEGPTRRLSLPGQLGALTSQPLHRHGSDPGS

MCF7 [12] = assay: Antiproliferative activity against human MCF7 cells overexpressing EGFR assessed as inhibition of cell growth by CCK-8 assay; assay type: functional, cell-based
[13] = biological target: Protein cereblon/Zinc finger protein Helios (Homo sapiens) (UniProt Q96SW2+Q9UKS7); assay: PROTAC activity at CRBN/IKZF2 in tamoxifen-resistant human LCC2 cells assessed as degradation of IKZF2 at 10 uM measured after 36 hrs by diaPASEF-based quantitative proteomics analysis; settings: Tamoxifen-resistant LCC2 cell
Chain of Protein cereblon/Zinc finger protein Helios (Homo sapiens) (Q96SW2 whole entry, looked up): as the sequence (Q96SW2 whole entry partner) above
Chain of Protein cereblon/Zinc finger protein Helios (Homo sapiens) (Q9UKS7 whole entry, looked up): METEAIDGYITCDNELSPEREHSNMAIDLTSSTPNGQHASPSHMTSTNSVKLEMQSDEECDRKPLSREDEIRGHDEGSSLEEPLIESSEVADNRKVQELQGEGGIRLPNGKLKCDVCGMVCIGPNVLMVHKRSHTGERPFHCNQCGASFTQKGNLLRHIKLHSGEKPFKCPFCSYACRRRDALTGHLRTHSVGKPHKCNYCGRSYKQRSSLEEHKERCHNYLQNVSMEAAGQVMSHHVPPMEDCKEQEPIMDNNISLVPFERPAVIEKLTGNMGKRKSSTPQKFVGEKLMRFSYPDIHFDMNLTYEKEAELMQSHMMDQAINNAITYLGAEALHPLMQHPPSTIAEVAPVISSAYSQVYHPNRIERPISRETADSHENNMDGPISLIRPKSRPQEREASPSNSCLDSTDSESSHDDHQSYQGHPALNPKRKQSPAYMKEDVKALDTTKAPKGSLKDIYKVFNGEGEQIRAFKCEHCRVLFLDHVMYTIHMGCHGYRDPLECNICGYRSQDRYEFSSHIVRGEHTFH

[14] = AUC (0 to infinity) in Balb/c mouse at 20 mg/kg, po by LC-MS/MS analysis; assay type: ADME, organism-based; settings: in vivo
MCF7 [15] = assay: Antiproliferative activity against human MCF7 cells assessed as inhibition of cell growth by CCK8 assay; assay type: functional, cell-based
[16] = AUC (0 to infinity) in Balb/c mouse at 4 mg/kg, ip by LC-MS/MS analysis; assay type: ADME, organism-based; settings: in vivo
[17] = Tmax in Balb/c mouse at 4 mg/kg, ip by LC-MS/MS analysis; assay type: ADME, organism-based; settings: in vivo
[18] = biological target: T1, Protein cereblon/Nuclear receptor coactivator 3; assay: PROTAC activity at CRBN/SRC-3 in human MCF7 cells assessed as induction of SRC-3 degradation at 0.1 uM incubated for 36 hrs by immunoblot analysis; assay type: cell-based
[19] = AUC (0 to t) in Balb/c mouse at 4 mg/kg, ip by LC-MS/MS analysis; assay type: ADME, organism-based; settings: in vivo
[20] = biological target: Protein cereblon/Eukaryotic peptide chain release factor GTP-binding subunit ERF3A (Homo sapiens) (UniProt Q96SW2+P15170); assay: PROTAC activity at CRBN/GSPT1-alpha in tamoxifen-resistant human LCC2 cells assessed as degradation of GSPT1 at 10 uM measured after 36 hrs by diaPASEF-based quantitative proteomics analysis; settings: Tamoxifen-resistant LCC2 cell
Chain of Protein cereblon/Eukaryotic peptide chain release factor GTP-binding subunit ERF3A (Homo sapiens) (P15170 whole entry, looked up): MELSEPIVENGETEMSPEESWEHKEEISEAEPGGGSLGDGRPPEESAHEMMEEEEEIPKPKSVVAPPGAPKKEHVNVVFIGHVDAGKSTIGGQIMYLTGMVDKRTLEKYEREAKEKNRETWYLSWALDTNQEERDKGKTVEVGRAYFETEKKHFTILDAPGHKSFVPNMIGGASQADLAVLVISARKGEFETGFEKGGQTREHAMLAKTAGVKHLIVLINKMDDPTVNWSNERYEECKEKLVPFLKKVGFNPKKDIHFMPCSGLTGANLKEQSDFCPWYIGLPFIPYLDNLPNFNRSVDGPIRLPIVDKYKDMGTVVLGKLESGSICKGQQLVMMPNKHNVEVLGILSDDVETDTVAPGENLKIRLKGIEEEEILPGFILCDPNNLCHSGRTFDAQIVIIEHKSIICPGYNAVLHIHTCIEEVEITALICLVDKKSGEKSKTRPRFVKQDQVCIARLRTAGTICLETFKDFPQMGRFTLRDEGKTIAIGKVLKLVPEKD
Chain of Protein cereblon/Eukaryotic peptide chain release factor GTP-binding subunit ERF3A (Homo sapiens) (Q96SW2 whole entry, looked up): as the sequence (Q96SW2 whole entry partner) above

[21] = Induction of cell cycle arrest in tamoxifen-resistant human LCC2 cells assessed as accumulation of cells at S phase at 20 uM incubated for 48 hrs by propidium iodide staining based flow cytometry (reference value: 9.72%); assay type: functional
LNCaP = assay: Antiproliferative activity against human LNCaP cells assessed as inhibition of cell growth by CCK-8 assay; assay type: functional, cell-based
[22] = Antiproliferative activity against tamoxifen-resistant human LCC2 cells assessed as inhibition of cell growth by CCK8 assay; assay type: functional, cell-based
[23] = Toxicity against Balb/c mouse xenografted with tamoxifen-resistant human LCC2 cells assessed as effect on liver pathological changes at 3 to 5 uM/Kg, ip administered once every 2 days for 23 days and measured on day 25 by Hematoxylin-Eosin based […] staining analysis; assay type: organism-based; settings: in vivo, 600 h, dose 3-5 µM/Kg, time 25 day
[24] = biological target: T1, Protein cereblon/Nuclear receptor coactivator 3; assay: PROTAC activity at CRBN/SRC-3 in tamoxifen-resistant human LCC2 cells assessed as downregulation of ER-alpha mRNA expression at 0.01 to 10 uM incubated for 36 hrs by qRT-PCR analysis; assay type: cell-based; settings: Tamoxifen-resistant LCC2 cell, dose 0.01-10 µM
[25] = Hepatic extraction ratio in human liver microsomes in presence of NADPH by LC-MS/MS analysis; assay type: ADME, Microsome; settings: read-out: ERH
[26] = Induction of apoptosis in tamoxifen-resistant human LCC2 cells assessed as necrotic cells at 20 uM incubated for 48 hrs by AnnexinV-FITC/PI staining based flow cytometry (reference value: 1.16%); assay type: functional, Tamoxifen-resistant LCC2 cell
[27] = AUC(0 to t) in Balb/c mouse at 2 mg/kg, iv by LC-MS/MS analysis; assay type: ADME, organism-based; settings: in vivo
[28] = Volume of distribution at steady state in Balb/c mouse at 2 mg/kg, iv by LC-MS/MS analysis; assay type: ADME, organism-based; settings: in vivo, read-out: Vdss
[29] = Cmax in Balb/c mouse at 2 mg/kg, iv by LC-MS/MS analysis; assay type: ADME, organism-based; settings: in vivo
[30] = Induction of apoptosis in tamoxifen-resistant human LCC2 cells assessed as early apoptotic cells at 20 uM incubated for 48 hrs by AnnexinV-FITC/PI staining based flow cytometry (reference value: 5.92%); assay type: functional, Tamoxifen-resistant LCC2 cell
Mus musculus = assay: In vivo PROTAC activity at CRBN/SRC-3 in Balb/c mouse xenografted with tamoxifen-resistant human LCC2 cells assessed as induction of SRC-3 degradation in tumor tissues at 5 uM/Kg, ip administered once every 2 days for 23 days and measured on day 25 by western blot analysis; assay type: functional, organism-based; settings: time 25.0 day

With C/C(=N\Nc1nc2ccccc2n1C1CN(C2CCN(c3cccc4c3C(=O)N(C3CCC(=O)NC3=O)C4=O)CC2)C1)c1ccccn1 (configuration not stated) the Activity [1] was 85%, the Activity [2] was “Active; Moderate Degradation Against Src-1 Compared To Src-3 Observed” and the Activity [3] was “Non-toxic”. For the same molecule, the viability at 5 µM [4] was 54.6%, the Activity [5] was “Active” and the Activity [6] was “Active”. For the same molecule, the Activity [7] was “Active”, the Activity [8] was “Active” and the Activity [9] was “inactive”. The Activity [10] was “Active”, the IC50 [11] was 1100 nM and the IC50 (MCF7 [12]) was 70 nM. For the same molecule, the Activity [13] was “inactive”, the AUC(0-inf) [14] was 58.4 ng·h/mL and the IC50 (MCF7 [15]) was 10 nM. For the same molecule, the AUC(0-inf) [16] was 55.2 ng·h/mL, the Tmax [17] was 19.8 min and the Activity [18] was “Active”. For the same molecule, the AUC(0-t) [19] was 49.1 ng·h/mL, the Activity [20] was “inactive” and the Activity [21] was 11.58%. The IC50 (LNCaP) was 1430 nM, the IC50 [22] was 350 nM and the Activity [23] was “Non-toxic”. The Activity [24] was “Active”, the hepatic extraction ratio [25] was 0.902 and the Activity [26] was 10.9%. The AUC(0-t) [27] was 318 ng·h/mL, the Vd [28] was 29.1 L/kg and the Cmax [29] was 148 ng/mL. The Activity [30] was 31.96% and the Activity (Mus musculus) was “Active”.
